Reference: article PMC6420960 (Science translational medicine, 2015)
Entries after “also recorded” stand apart in the source; their conditions may differ. Structures can show the parent of a compound that is named as a salt. Where two headings read alike, the source gives them in different places.

Legend:
H1-histamine receptor = H1-histamine receptor (Homo sapiens, UniProt P35367); test: β-arrestin H1-histamine receptor assay; type: cell-based
[1] = system: wild-type HCVcc (genotype 2a, JFH-1 strain); type: cell-based, Hepatitis C virus; settings: 10 μM; compared with DMSO treatment
ATPlite assay = settings: human, Huh7.5.1 cells
HIV = settings: cited from earlier work
HCV-Luc [2] = test: HCV-Luc infection assay; settings: for EC90: read-out: HCV-Luc EC90; for anti-HCV activity (in words): NPC screen / confirmation assays; for selectivity ratio: human
Huh7.5.1 cells [3] = system: Huh7.5.1 cells
[4] = system: HCV chimeric genotype viruses (1a, 1b, 2a, 2b, 3a, 4a, 5a, 6a, and 7a); test: HCV chimeric genotype virus infection of Huh7.5.1 cells; type: cell-based, Hepatitis C virus; settings: 10 μM
[5] = system: genotype 1b and 2a HCV replicon cell lines; type: cell-based, Hepatitis C virus; settings: 10 μM
[6] = system: dengue reporter virus particle; test: Dengue reporter virus particle; type: cell-based; settings: read-out: EC50 in dengue RVP assay
[7] = system: genotype 1a replicon in Huh7.5.1 cells; type: cell-based, Hepatitis C virus; settings: 10 μM
[8] = Mouse pharmacokinetics and tissue distribution, single intraperitoneal dose; settings: for brain levels (in words): (S)-CCZ 50 mg/kg, (S)-nor-CCZ 10 mg/kg, single intraperitoneal dose
Huh7.5.1 cells [9] = system: Huh7.5.1 cells; remark: listed apart in the source
[10] = Cytotoxicity in the dengue RVP assay; type: cell-based
[11] = day 28
[12] = system: hepatitis B virus, HCV replicon, herpes simplex virus-1, human cytomegalovirus, vaccinia virus, dengue virus, influenza A (H1N1) virus, respiratory syncytial …; type: cell-based
HCV-Luc [13] = test: HCV-Luc assay in 40% human serum; type: cell-based, Hepatitis C virus; settings: read-out: protein binding adjusted EC50
HCV genotype 1b = type: in vivo, Alb-uPA/SCID mice engrafted with primary human hepatocytes
wild-type HCVcc = type: cell-based, Hepatitis C virus; settings: primary human hepatocytes; titration, dose-dependent manner
HCV-Luc [14] = test: Time-of-addition experiment; type: cell-based, Hepatitis C virus; settings: for inhibitory kinetics, time-of-addition profile: bafilomycin A1 10 nM, sofosbuvir 10 μM, 2-hour incubations; for effect on viral level, time of addition: treatment during the attachment step
HCVpp genotype 1a and 1b = type: cell-based, Hepatitis C virus; settings: 10 μM; Huh7.5.1 cells
HCVsc, genotype 2a = type: cell-based, Hepatitis C virus; settings: 10 μM
[15] = mouse, in vivo, ip, 10 mg/kg
HCV-Luc [16] = test: In vitro combination evaluation; settings: for CalcuSyn CI value: in combination with (S)-CCZ at or near their EC50 values; for MacSynergy Log volume: in combination with (S)-CCZ, Bliss independence model
[17] = Microsomal stability assay, human microsomes; type: in vitro ADME
[18] = Microsomal stability assay, mouse microsomes; type: in vitro ADME
[19] = read-out: HCV-Luc EC50, Huh7.5.1 cells, luciferase signal 48 hours after treatment
[20] = Huh7.5.1 cells, luciferase signal 48 hours after treatment

H1-histamine receptor, sequence (P35367 whole entry): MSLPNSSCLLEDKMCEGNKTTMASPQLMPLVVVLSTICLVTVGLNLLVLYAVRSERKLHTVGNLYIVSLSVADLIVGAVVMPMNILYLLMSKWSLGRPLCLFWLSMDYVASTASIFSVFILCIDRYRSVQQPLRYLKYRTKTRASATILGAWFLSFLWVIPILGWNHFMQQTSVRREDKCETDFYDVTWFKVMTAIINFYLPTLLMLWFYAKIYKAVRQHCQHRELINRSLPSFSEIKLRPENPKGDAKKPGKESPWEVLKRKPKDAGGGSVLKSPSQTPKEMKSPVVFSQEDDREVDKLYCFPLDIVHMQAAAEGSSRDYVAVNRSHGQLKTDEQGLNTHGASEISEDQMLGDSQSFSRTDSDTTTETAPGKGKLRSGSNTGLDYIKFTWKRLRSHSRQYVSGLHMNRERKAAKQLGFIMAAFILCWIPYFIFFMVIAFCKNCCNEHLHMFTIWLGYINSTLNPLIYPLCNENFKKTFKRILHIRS

For `CN1CCN(C(c2ccccc2)c2ccc(Cl)cc2)CC1` (racemic) [Racemic CCZ, chlorcyclizine HCl], the “Antihistamine activity at 10 nM” value (H1-histamine receptor) was 72.60%, the “Intracellular and extracellular viral RNA levels” value [1] was “significantly reduced” and the CC50 (ATPlite assay) was 49.8 ± 17.2 µM. For the same compound, the “activity against HIV” value (HIV) was “reported activity against HIV”, the EC50 (HCV-Luc [2]; Hepatitis C virus) was ~0.05 µM and the EC50 (HCV-Luc [2]; Hepatitis C virus, Huh-7.5.1, 48 h, read-out: HCV-Luc EC50) was 0.044 ± 0.011 µM. It also gave an EC90 (HCV-Luc [2]; Hepatitis C virus, Huh-7.5.1, 48 h) of 1.4 ± 0.45 µM.
In the case of `CN1CCN([C@H](c2ccccc2)c2ccc(Cl)cc2)CC1` [(R)-CCZ], the “Antihistamine activity at 10 nM” value (H1-histamine receptor) is reported as 88.00%, the “Intracellular and extracellular viral RNA levels” value [1] is reported as “significantly reduced” and the CC50 (Huh7.5.1 cells [3]) is reported as 37.5 ± 4.15 µM. The EC50 (HCV-Luc [2]; [19]) was 0.02 ± 0.005 µM and the EC90 (HCV-Luc [2]; [20]) was 1.09 ± 0.37 µM.
With `CN1CCN([C@@H](c2ccccc2)c2ccc(Cl)cc2)CC1` [(S)-CCZ] the “extracellular HCV RNA levels and infectivity (TCID50/ml)” value [4] was “inhibited”, the “inhibitory effect on HCV replicon” value [5] was “did not exert a significant inhibitory effect” and the “Antihistamine activity at 10 nM” value (H1-histamine receptor) was 41.70%. The “Intracellular and extracellular viral RNA levels” value [1] was “significantly reduced”, the EC50 [6] was 1.88 µM and the “HCV replication, transient replicon” value [7] was “not inhibited”. The “ratio of liver to plasma” value ([8]; 50 mg/kg intraperitoneal, assuming liver density 1.0 g/ml) was 29.6, the “brain levels (in words)” value [8] was “comparable to liver levels” and the “cytotoxicity after continuous treatment for 21 days” value (Huh7.5.1 cells [9]; 10 μM) was “low cytotoxicity”. The “cytotoxicity after continuous treatment for 21 days” value (Huh7.5.1 cells [9]; 1.0 and 5.0 μM) was “no cytotoxicity”, the CC50 (Huh7.5.1 cells [3]) was 33.4 ± 2.44 µM and the CC50 [10] was > 31.6 µM. The “liver to plasma ratio” value ([11]; 2 mg/kg group) was 38, the “liver to plasma ratio” value ([11]; 10 mg/kg group) was 41 and the liver concentration ([11]; (S)-CCZ dose of 2 mg/kg) was 0.342 µM. For the same compound, the liver concentration ([11]; (S)-CCZ dose of 10 mg/kg) was 2.66 µM, the “antiviral activity in NIAID antiviral screen” value [12] was “little or no antiviral activity” and the EC50 (HCV-Luc [13]) was 0.24 µM. For the same compound, the “decrease of genotype 1b virus titer” value (HCV genotype 1b; 2 mg/kg daily for 4 weeks) was “about 1 log”, the “reduction of HCV titers from pretreatment baseline” value (HCV genotype 1b; 50 and 10 mg/kg daily for 4 weeks, genotype 1b) was 2 log and the “HCV titers during the treatment period (drug resistance)” value (HCV genotype 1b; genotype 1b and 2a infections) was “without rebound”. For the same compound, the “intracellular HCV RNA level” value (wild-type HCVcc) was “inhibited”, the “inhibition of infection, time of addition” value (“inhibition of infection” for short) (HCV-Luc [14]; added 2 or 3 hours after entry) was “no significant inhibition” and the “inhibition of infection” value (HCV-Luc [14]; added 1 hour after synchronous entry) was “Less inhibitory effect”. The “inhibition of infection” value (HCV-Luc [14]; added during viral attachment at 4°C for 2 hours or during the first 2 hours of synchronous entry at 37°C) was “potent inhibition”, the “inhibitory effect on HCVpp entry” value (HCVpp genotype 1a and 1b) was “no significant inhibitory effect” and the EC50 (HCV-Luc [2]; [19]) was 0.024 ± 0.009 µM. For the same compound, the EC90 (HCV-Luc [2]; [20]) was 1.44 ± 0.43 µM and the “inhibitory activity in the HCVsc assay” value (HCVsc, genotype 2a) was “strong inhibitory activity”.
In the case of `Clc1ccc([C@H](c2ccccc2)N2CCNCC2)cc1` [(S)-Nor-CCZ], the “Antihistamine activity at 10 nM” value (H1-histamine receptor) is reported as 2.24%, the “T1/2 compared to (S)-CCZ (in words)” value [15] is reported as “longer T1/2” and the “ratio of average concentration in liver to plasma” value ([8]; 10 mg/kg intraperitoneal) is reported as 60.7. For the same compound, the “brain levels (in words)” value [8] was “comparable to liver levels”, the CC50 (Huh7.5.1 cells [3]) was 9.31 ± 0.04 µM and the liver concentration ([11]; (S)-CCZ dose of 2 mg/kg) was 3.16 µM. For the same compound, the liver concentration ([11]; (S)-CCZ dose of 10 mg/kg) was 12.1 µM, the EC50 (HCV-Luc [2]; [19]) was 0.034 ± 0.012 µM and the EC90 (HCV-Luc [2]; [20]) was 0.578 ± 0.099 µM.
In the case of `CO/C1=C\C(C)=C\[C@@H](C)[C@@H](O)[C@@H](C)C/C(C)=C/C=C/[C@H](OC)[C@@H]([C@@H](C)[C@@H](O)[C@H](C)[C@@]2(O)C[C@@H](O)[C@H](C)[C@@H](C(C)C)O2)OC1=O` [Bafilomycin A1], the “inhibitory kinetics, time-of-addition profile” value (HCV-Luc [14]) is reported as “only showed significant inhibitory effect when added during the first 2 hours of synchronous entry” and the “effect on viral level, time of addition” value (HCV-Luc [14]) is reported as “no effect on viral level”.
In the case of `CC(C)(C)NC(=O)N[C@H](C(=O)N1C[C@H]2[C@@H]([C@H]1C(=O)NC(CC1CCC1)C(=O)C(N)=O)C2(C)C)C(C)(C)C` (stereo partly shown) [Boceprevir], the “CalcuSyn CI value” (HCV-Luc [16]) is reported as 0.691 ± 0.114 and the “MacSynergy Log volume” value (HCV-Luc [16]) is reported as “+++ (strong synergy (log volume ≥ 9))”.
For `O=C(O)COCCN1CCN(C(c2ccccc2)c2ccc(Cl)cc2)CC1` (stereo not shown) [Cetirizine], the “anti-HCV activity (in words)” value (HCV-Luc [2]) was “not active”.
With `CN1CCN(C(c2ccccc2)c2ccccc2)CC1` [Cyclizine] the “lower activity than CCZ” value (HCV-Luc [2]; relative to CCZ) was 10 fold.
For `COC(=O)N[C@H](C(=O)N1CCC[C@H]1c1nc(-c2ccc(-c3ccc(-c4c[nH]c([C@@H]5CCCN5C(=O)[C@@H](NC(=O)OC)C(C)C)n4)cc3)cc2)c[nH]1)C(C)C` [Daclatasvir], the “CalcuSyn CI value” (HCV-Luc [16]) was 0.427 ± 0.142 and the “MacSynergy Log volume” value (HCV-Luc [16]) was “+++ (strong synergy (log volume ≥ 9))”.
With `NCCc1c[nH]cn1` [Histamine] the “anti-HCV activity (in words)” value (HCV-Luc [2]) was “no anti-HCV activity; also recorded: no effect on HCV infection”.
In the case of `O[C@H]1[C@H]2c3cc4c(cc3CN3CCC(=C[C@@H]1O)[C@H]23)OCO4` [Lycorine-HCl, reference compound], the EC50 [6] is reported as 0.0406 µM and the CC50 [10] is reported as > 31.6 µM.
With `NC(=O)c1ncn([C@@H]2O[C@H](CO)[C@@H](O)[C@H]2O)n1` [Ribavirin] the “CalcuSyn CI value” (HCV-Luc [16]) was 0.630 ± 0.106 and the “MacSynergy Log volume” value (HCV-Luc [16]) was “+++ (strong synergy (log volume ≥ 9))”.
For `CC(C)OC(=O)[C@H](C)N[P@](=O)(OC[C@H]1O[C@@H](n2ccc(=O)[nH]c2=O)[C@](C)(F)[C@@H]1O)Oc1ccccc1` [Sofosbuvir], the “CalcuSyn CI value” (HCV-Luc [16]) was 0.362 ± 0.075, the “MacSynergy Log volume” value (HCV-Luc [16]) was “+++ (strong synergy (log volume ≥ 9))” and the “inhibitory kinetics, time-of-addition profile” value (HCV-Luc [14]) was “inhibited HCVcc infection when added at all the time points except during the attachment stage”. The “effect on viral level, time of addition” value (HCV-Luc [14]) was “no effect on viral level”.
For `CCC[C@H](NC(=O)[C@@H]1[C@H]2CCC[C@H]2CN1C(=O)[C@@H](NC(=O)[C@@H](NC(=O)c1cnccn1)C1CCCCC1)C(C)(C)C)C(=O)C(=O)NC1CC1` [Telaprevir], the “CalcuSyn CI value” (HCV-Luc [16]) was 0.426 ± 0.138 and the “MacSynergy Log volume” value (HCV-Luc [16]) was “+++ (strong synergy (log volume ≥ 9))”.
`NC(=O)COCCN1CCN(C(c2ccccc2)c2ccc(Cl)cc2)CC1` (stereo not shown) [cetirizine amide] showed an EC50 (HCV-Luc [2]; [19]) of 0.103 µM.
With `Clc1ccc(Cn2c(CN3CCCC3)nc3ccccc32)cc1` [clemizole] the “anti-HCV activity (in words)” value (HCV-Luc [2]) was “much less potent activity”.
In the case of `CN1CCCN(C(c2ccccc2)c2ccc(Cl)cc2)CC1` (stereo not shown) [homochlorcyclizine], the EC50 (HCV-Luc [2]; Hepatitis C virus) is reported as ~0.05 µM and the selectivity ratio (HCV-Luc [2]) is reported as 318 to 924.
With `OCCOCCN1CCN(C(c2ccccc2)c2ccc(Cl)cc2)CC1` (stereo not shown) [hydroxyzine] the EC50 (HCV-Luc [2]; Hepatitis C virus) was ~0.05 µM and the selectivity ratio (HCV-Luc [2]) was 318 to 924.
In the case of `Clc1ccc(C(c2ccccc2)N2CCNCC2)cc1` (stereo not shown) [nor-CCZ, nor-chlorcyclizine], the “cytotoxicity compared with CCZ (in words)” value (Huh7.5.1 cells [3]) is reported as “higher cytotoxicity”, the half-life [17] is reported as > 1.67 h and the “T1/2 in mice (microsomes) relative to CCZ” value [18] is reported as “more than fourfold longer”. For the same compound, the “anti-HCV activity (in words)” value (HCV-Luc [2]) was “comparable to that of CCZ” and the selectivity ratio (HCV-Luc [2]) was 188.
With IFN-α the “CalcuSyn CI value” (HCV-Luc [16]) was 0.609 ± 0.128 and the “MacSynergy Log volume” value (HCV-Luc [16]) was “+++ (strong synergy (log volume ≥ 9))”.
